Laboratory results reported in patent US12612386B2, “Heteroaryl-triazole compounds as pesticides” (Bayer Aktiengesellschaft, priority 2020, dated 2026).

Experiments:
Assay type in all cases: in vivo
[1] = test system: cattle tick larvae (Rhipicephalus microplus), strain Parkhurst, resistant against synthetic pyrethroids; assay: Rhipicephalus (Boophilus) microplus in-vitro contact test, larval cattle tick; conditions: 5 μg/cm^2 (=500 g/ha), after 48 hours
Procedure, shortened: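 Efficacy is read at 48 h from negative geotactic behaviour after larvae are patted to the tube bottom, expressed as percentage dead or moribund. Larvae (20-50) sit in glass tubes whose walls carry an evaporated acetone film of compound (900 ppm corresponds to 5 μg/cm^2), kept at 27° C., 85% relative humidity.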

[2] = test system: adult cat fleas (Ctenocephalides felis); assay: Ctenocephalides felis in-vitro contact test, adult cat flea; conditions: 5 μg/cm^2 (=500 g/ha), after 48 hours
Method: Ctenocephalides felis—In-Vitro Contact Tests Adult Cat Flea
(§1) 9 mg compound is solved in 1 mL acetone and diluted with acetone to the desired concentration. 250 μL of the test solution is filled in 25 mL glass test tubes and homogeneously distributed on the inner walls by rotation and tilting on a shaking device (2 h at 30 rpm). With a compound concentration of 900 ppm, an inner surface of 44.7 cm^2 and a homogeneous distribution, a dose of 5 μg/cm^2 is achieved.
(§2) After the solvent has evaporated, each test tube is filled with 5-10 adult cat fleas (Ctenocephalides felis), closed with a perforated lid and incubated in a lying position at room temperature and relative humidity. After 48 hours efficacy is determined. The fleas are patted on the ground of the tubes and are incubated on a heating plate at 45-50° C. for at most 5 minutes. Immotile or uncoordinated moving fleas, which are not able to escape the heat by climbing upwards, are marked as dead or moribund.
An efficacy of 100% means all fleas are dead or moribund; 0% means no fleas are dead or moribund.

[3] = test system: adult brown dog ticks (Rhipicephalus sanguineus); assay: Rhipicephalus sanguineus in-vitro contact test, adult brown dog ticks; conditions: 48 h, read-out: efficacy (ticks dead or moribund)
Method: Rhipicephalus sanguineus—In-Vitro Contact Tests with Adult Brown Dog Ticks
as §1
as §2, with “brown dog ticks (Rhipicephalus sanguineus),” for “cat fleas (Ctenocephalides felis),”, “ticks” for “fleas”, “ticks,” for “fleas,”
An efficacy of 100% means all ticks are dead or moribund; 0% means no ticks are dead or moribund.

[4] = test system: larvae of the banded cucumber beetle (Diabrotica balteata); assay: Diabrotica balteata spray test; conditions: 168 h, 100 g/ha (=32 μg/well), after 7 days, read-out: efficacy (seedling growth)
Procedure, shortened: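 Germinated wheat seeds on agar (5 per well) were sprayed with compound formulated in acetone/DMF and diluted in water with 1000 ppm emulsifier. Each unit was then infested with 10–20 larvae. Efficacy % was scored after 7 days as seedling growth relative to an untreated, uninfested control (100% = normal growth).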

[5] = test system: green peach aphid (Myzus persicae); assay: Myzus persicae spray test (MYZUPE); conditions: 120 h, 100 g/ha, after 5 days
Procedure, shortened: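 Chinese cabbage leaf disks infested with all instars of Myzus persicae were sprayed with compound formulated in acetone/dimethylformamide and diluted in water with 1000 ppm alkylarylpolyglycol ether emulsifier. Percent mortality was scored after 5 days, 100% meaning all aphids killed.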

[6] = test system: larvae of the southern green stink bug (Nezara viridula); assay: whole plant or invertebrate; conditions: 96 h
Procedure, shortened: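 Compound in acetone/DMF was diluted in water with 1000 ppm alkylarylpolyglycol ether emulsifier. Barley plants were sprayed with it, then infested with Nezara viridula larvae. Mortality % was scored after 4 days (100% = all killed).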

[7] = test system: brown planthopper (Nilaparvata lugens); assay: Nilaparvata lugens spray test; conditions: 96 h
Procedure, shortened: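 Rice plants (Oryza sativa) sprayed with compound formulated in acetone/DMF with alkylarylpolyglycol ether emulsifier (1000 ppm in diluting water), then infested with planthoppers. Mortality (%) scored after 4 days; 100% = all insects killed, 0% = none killed.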

[8] = test system: fall armyworm larvae (Spodoptera frugiperda); assay: whole plant or invertebrate; conditions: 168 h
Procedure, shortened: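 Maize leaf sections sprayed with compound in acetone/DMF with alkylarylpolyglycol ether emulsifier diluted in water, then infested with fall armyworm larvae once dry. Mortality (%) scored after 7 days; 100% = all caterpillars killed.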

[9] = test system: adult mosquitoes Aedes aegypti strain MONHEIM; assay: Aedes aegypti test (AEDSAE surface treatment & contact assay); conditions: 24 hours after contact, read-out: efficacy (mortality); for mortality at 4 mg/m2: surface concentration 4 mg/m^2, 30 min exposure; for mortality at 20 mg/m2: surface concentration 20 mg/m^2, 30 min exposure
Procedure, shortened: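 Compound in acetone containing 2000 ppm rapeseed oil methyl ester applied to a glazed tile and dried; adult mosquitoes exposed on the treated surface for 30 minutes. Percent mortality scored 24 hours after contact (100% = all dead, 0% = none dead).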

[10] = test system: adult mosquitoes Culex quinquefasciatus strain P00; assay: Culex quinquefasciatus test (CULXFA surface treatment & contact assay); conditions: 24 hours after contact, read-out: efficacy (mortality); for mortality at 4 mg/m2: surface concentration 4 mg/m^2, 30 min exposure; for mortality at 20 mg/m2: surface concentration 20 mg/m^2, 30 min exposure
Method: Culex quinquefasciatus Test (CULXFA Surface Treatment & Contact Assay)
(§3) Solvent: Aceton+2000 ppm rapeseed oil methyl ester (RME)
(§4) This solution is pipetted onto a glazed tile and after evaporation of the acetone, adult mosquitoes of the species Culex quinquefasciatus strain P00 are placed onto the dried surface. The exposure time is 30 minutes. Mortality in percent (%) is determined 24 hours after contact of the insects to the treated surface. 100% mortality means that all tested insects are dead, whereas 0% means that no insect died.

[11] = test system: adult flies Musca domestica strain WHO-N; assay: Musca domestica test (MUSCDO surface treatment & contact assay); conditions: 24 hours after contact, read-out: efficacy (mortality); for mortality at 4 mg/m2: surface concentration 4 mg/m^2, 30 min exposure; for mortality at 20 mg/m2: surface concentration 20 mg/m^2, 30 min exposure
Method: Musca domestica Test (MUSCDO Surface Treatment & Contact Assay)
as §3
as §4, with “flies” for “mosquitoes”, “Musca domestica” for “Culex quinquefasciatus”, “WHO-N” for “P00”

[12] = test system: adult animals Blattella germanica strain PAULINIA; assay: Blattella germanica test (BLTTGE surface treatment & contact assay); conditions: 24 hours after contact, read-out: efficacy (mortality); for mortality at 4 mg/m2: surface concentration 4 mg/m^2, 30 min exposure; for mortality at 20 mg/m2: surface concentration 20 mg/m^2, 30 min exposure
Method: Blattella germanica Test (BLTTGE Surface Treatment & Contact Assay)
as §3
In order to produce a sufficient, active ingredient containing solution it is necessary to solve the test compound in the solvent-mix (acetone at 2 mg/ml/RME 2000 ppm). This solution is pipetted onto a glazed tile and after evaporation of the acetone, adult animals of the species Blattella germanica strain PAULINIA are placed onto the dried surface. The exposure time is 30 minutes.
Mortality in percent (%) is determined 24 hours after contact of the insects to the treated surface. 100% mortality means that all tested insects are dead, whereas 0% means that no insect died.

SMILES | efficacy (larvae dead or moribund) [1] [%] | efficacy (fleas dead or moribund) [2] [%] | pest or weed control at 5 µg/cm2, 500 g/ha [3] [%] | pest or weed control at 32 µg/disc, 100 g/ha [4] [%] | mortality at 100 g/ha [5] [%] | mortality at 100 g/ha [6] [%] | mortality at 500 g/ha [6] [%] | mortality at 500 g/ha [7] [%] | mortality at 100 g/ha [8] [%] | mortality at 4 mg/m2 [9] [%] | mortality at 20 mg/m2 [9] [%] | mortality at 4 mg/m2 [10] [%] | mortality at 20 mg/m2 [10] [%] | mortality at 4 mg/m2 [11] [%] | mortality at 20 mg/m2 [11] [%] | mortality at 4 mg/m2 [12] [%] | mortality at 20 mg/m2 [12] [%]
C[C@H](NC(=O)c1cc(Br)cc(OC(F)F)c1)c1ncnn1-c1cc(C(N)=O)ncn1 [I-51] | 100 | 100 | 100 | 100 | 90 | 100 | 100 | 100 | 100 | 80 to 100 | 80 to 100 | 80 to 100 | 80 to 100 | 80 to 100 | 80 to 100 | 80 to 100 | 80 to 100
C[C@H](NC(=O)c1cc(OC(F)(F)F)cc(OC(F)(F)F)c1)c1ncnn1-c1cc(C(N)=O)ncn1 [I-102] | 100 | 100 | 80 | 100 | 100 | – | 100 | 90 | 100 | 80 to 100 | 80 to 100 | 80 to 100 | 80 to 100 | 80 to 100 | 80 to 100 | 80 to 100 | 80 to 100
C[C@H](NC(=O)c1cc(OC(F)(F)F)cc(S(=O)(=O)C(F)F)c1)c1ncnn1-c1cc(C#N)ncn1 [I-20] | – | – | – | 100 | 100 | – | – | – | 100 | 80 to 100 | 80 to 100 | – | 80 to 100 | – | 80 to 100 | – | –
C[C@H](NC(=O)c1cc(OC(F)(F)F)cc(OC(F)(F)F)c1)c1nc(C2CC2)nn1-c1cc(C(N)=O)ncn1 [I-36] | 100 | – | 80 | 100 | – | – | – | – | 100 | – | 80 to 100 | – | – | 80 to 100 | 80 to 100 | – | –
C[C@H](NC(=O)c1cc(OC(F)F)cc(OC(F)F)c1)c1ncnn1-c1cc(C(N)=O)ncn1 [I-93] | – | – | – | 100 | 100 | – | 100 | 100 | 100 | 80 to 100 | 80 to 100 | 80 to 100 | 80 to 100 | 80 to 100 | 80 to 100 | 80 to 100 | 80 to 100
